Assay results published in patent publication US12102648B2, “Orally-bioavailable nucleoside analogs” (priority 2021, dated 2024).
Where two headings read alike, the source gives them in different places.

Assay: in vitro
Type: in vitro ADME
Settings: human
Method in brief: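 Permeability measured in both directions across 19-day Caco-2 layers with TEER above 600 […], incubated at 37° C without shaking; donor and receiver sampled at 10 and 90 min for LC/MS/MS. Derived values: Papp (cm/s), efflux ratio, recovery.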

| SMILES | Papp A→B at 90 min (Caco-2) | Papp B→A at 90 min (Caco-2) | efflux ratio at 90 min (Caco-2) | Papp A→B at 90 min (Caco-2 monolayer, apical to basolateral, 90-minute incubation, read-out: Papp, A-B) | Papp B→A at 90 min (Caco-2 monolayer, basolateral to apical, 90-minute incubation, read-out: Papp, B-A) | efflux ratio at 90 min (Caco-2 monolayer, ER>2 indicates potential efflux transporter substrate, read-out: ER (efflux ratio)) |
| --- | --- | --- | --- | --- | --- | --- |
| CNc1nc(N)nc2c1ncn2[C@@H]1O[C@H](COC(=O)C(C)C)[C@@H](OC(=O)CC2CCCCC2)[C@@]1(C)F [Compound 195, ((2R,3R,4R,5R)-5-(2-amino-6-(methylamino)-9H-purin-9-yl)-3-(2-cyclohexylacetoxy)-4-fluoro-4-methyltetrahydrofuran-2-yl)methyl isobutyrate] | 6.3 ×10⁻⁶ cm/s | 1.1 ×10⁻⁶ cm/s | 0.18 |  |  |  |
| N#C[C@@]1(c2ccc3c(N)ncnn23)O[C@H](COC(=O)CC2CCC2)[C@@H](O)[C@H]1O [Compound 265, ((2R,3S,4R,5R)-5-(4-aminopyrrolo[2,1-f][1,2,4]triazin-7-yl)-5-cyano-3,4-dihydroxytetrahydrofuran-2-yl)methyl 2-cyclobutylacetate] | 0.29 ×10⁻⁶ cm/s | 0.36 ×10⁻⁶ cm/s | 1.2 |  |  |  |
| CC(=O)OC[C@H]1O[C@@](C#N)(c2ccc3c(N)ncnn23)[C@H](O)[C@@H]1O [Compound 13, ((2R,3S,4R,5R)-5-(4-aminopyrrolo[2,1-f][1,2,4]triazin-7-yl)-5-cyano-3,4-dihydroxytetrahydrofuran-2-yl)methyl acetate] | 0.2 ×10⁻⁶ cm/s | 0.6 ×10⁻⁶ cm/s | 2.7 |  |  |  |
| CCCCCOC(=O)Nc1ncnn2c([C@]3(C#N)O[C@H](COC(=O)CC4CCCCC4)[C@@H](O)[C@H]3O)ccc12 [Compound 88, ((2R,3S,4R,5R)-5-cyano-3,4-dihydroxy-5-(4-(((pentyloxy)carbonyl)amino)pyrrolo[2,1-f][1,2,4]triazin-7-yl)tetrahydrofuran-2-yl)methyl 2-cyclohexylacetate] | 2.1 ×10⁻⁶ cm/s | 1.6 ×10⁻⁶ cm/s | 0.78 |  |  |  |
| CCC(=O)OC[C@H]1O[C@@](C#N)(c2ccc3c(N)ncnn23)[C@H](O)[C@@H]1OC(=O)CC1CCCCC1 [Compound 66, [(2R,3S,4R,5R)-5-{4-aminopyrrolo[2,1-f][1,2,4]triazin-7-yl}-5-cyano-3-[(2-cyclohexylacetyl)oxy]-4-hydroxyoxolan-2-yl]methyl propanoate] | 2.7 ×10⁻⁶ cm/s | 0.36 ×10⁻⁶ cm/s | 0.13 |  |  |  |
| N#C[C@@]1(c2ccc3c(NC(=O)c4ccccc4)ncnn23)O[C@H](CO)[C@@H](OC(=O)CC2CCCCC2)[C@H]1O [Compound 342, (2R,3S,4R,5R)-5-(4-benzamidopyrrolo[2,1-f][1,2,4]triazin-7-yl)-5-cyano-4-hydroxy-2-(hydroxymethyl)tetrahydrofuran-3-yl 2-cyclohexylacetate] | 1.1 ×10⁻⁶ cm/s | 0.39 ×10⁻⁶ cm/s | 0.34 |  |  |  |
| N#C[C@@]1(c2ccc3c(NC(=O)[C@@H](N)Cc4ccc(F)cc4)ncnn23)O[C@H](COC(=O)CC2(N)CCCCC2)[C@@H](O)[C@H]1O [Compound 352, ((2R,3S,4R,5R)-5-(4-((S)-2-amino-3-(4-fluorophenyl)propanamido)pyrrolo[2,1-f][1,2,4]triazin-7-yl)-5-cyano-3,4-dihydroxytetrahydrofuran-2-yl)methyl 2-(1-aminocyclohexyl)acetate] | 0.25 ×10⁻⁶ cm/s | 1.4 ×10⁻⁶ cm/s | 5.7 |  |  |  |
| CC(C)(C(=O)OC[C@H]1O[C@@](C#N)(c2ccc3c(N)ncnn23)[C@H](O)[C@@H]1O)C1CCCCC1 [Compound 269, ((2R,3S,4R,5R)-5-(4-aminopyrrolo[2,1-f][1,2,4]triazin-7-yl)-5-cyano-3,4-dihydroxytetrahydrofuran-2-yl)methyl 2-cyclohexyl-2-methylpropanoate] | 15 ×10⁻⁶ cm/s | 20 ×10⁻⁶ cm/s | 1.3 |  |  |  |
| CC(C)CC(=O)OC[C@H]1O[C@@](C#N)(c2ccc3c(N)ncnn23)[C@H](O)[C@@H]1O [Compound 9, ((2R,3S,4R,5R)-5-(4-aminopyrrolo[2,1-f][1,2,4]triazin-7-yl)-5-cyano-3,4-dihydroxytetrahydrofuran-2-yl)methyl 3-methylbutanoate] | 3 ×10⁻⁶ cm/s | 4.7 ×10⁻⁶ cm/s | 1.6 |  |  |  |
| N#C[C@@]1(c2ccc3c(N)ncnn23)O[C@H](COC(=O)C[C@H]2CC[C@H](N)CC2)[C@@H](O)[C@H]1O [Compound 266, ((2R,3S,4R,5R)-5-(4-aminopyrrolo[2,1-f][1,2,4]triazin-7-yl)-5-cyano-3,4-dihydroxytetrahydrofuran-2-yl)methyl 2-((1r,4R)-4-aminocyclohexyl)acetate] | 0.19 ×10⁻⁶ cm/s | 0.38 ×10⁻⁶ cm/s | 2 |  |  |  |
| C[C@H]1CC[C@H](CC(=O)OC[C@H]2O[C@@](C#N)(c3ccc4c(N)ncnn34)[C@H](O)[C@@H]2O)CC1 [Compound 278, ((2R,3S,4R,5R)-5-(4-aminopyrrolo[2,1-f][1,2,4]triazin-7-yl)-5-cyano-3,4-dihydroxytetrahydrofuran-2-yl)methyl 2-((1r,4R)-4-methylcyclohexyl)acetate] | 2.2 ×10⁻⁶ cm/s | 4.9 ×10⁻⁶ cm/s | 2.2 |  |  |  |
| CCCCCOC(=O)Nc1ncnn2c([C@]3(C#N)O[C@H](CO)[C@@H](O)[C@H]3O)ccc12 [Compound 81, pentyl (7-((2R,3R,4S,5R)-2-cyano-3,4-dihydroxy-5-(hydroxymethyl)tetrahydrofuran-2-yl)pyrrolo[2,1-f][1,2,4]triazin-4-yl)carbamate] | 1 ×10⁻⁶ cm/s | 14.7 ×10⁻⁶ cm/s | 14 |  |  |  |
| CC(C)[C@H](N)C(=O)O[C@H]1[C@@H](O)[C@](C#N)(c2ccc3c(N)ncnn23)O[C@@H]1COC(=O)Cc1ccccc1 [Compound 43, (2R,3S,4R,5R)-5-{4-aminopyrrolo[2,1-f][1,2,4]triazin-7-yl}-5-cyano-4-hydroxy-2-{[(2-phenylacetyl)oxy]methyl}oxolan-3-yl (2S)-2-amino-3-methylbutanoate] |  |  |  | 0.74 ×10⁻⁶ cm/s | 0.22 ×10⁻⁶ cm/s | 0.3 |
| CCC(=O)O[C@H]1[C@@H](O)[C@](C#N)(c2ccc3c(NC(=O)OCOC(=O)C(C)(C)C)ncnn23)O[C@@H]1COC(=O)[C@@H](N)C(C)C [Compound 365, ((2R,3S,4R,5R)-5-cyano-4-hydroxy-5-(4-((((pivaloyloxy)methoxy)carbonyl)amino)pyrrolo[2,1-f][1,2,4]triazin-7-yl)-3-(propionyloxy)tetrahydrofuran-2-yl)methyl L-valinate] | 1.5 ×10⁻⁶ cm/s | 4.1 ×10⁻⁶ cm/s | 2.8 |  |  |  |
| CCCCCOC(=O)Nc1ncnn2c([C@]3(C#N)O[C@H](COC(=O)C(C)C)[C@@H](O)[C@H]3O)ccc12 [Compound 92, ((2R,3S,4R,5R)-5-cyano-3,4-dihydroxy-5-(4-(((pentyloxy)carbonyl)amino)pyrrolo[2,1-f][1,2,4]triazin-7-yl)tetrahydrofuran-2-yl)methyl isobutyrate] | 2.7 ×10⁻⁶ cm/s | 4.6 ×10⁻⁶ cm/s | 1.7 |  |  |  |
| CC(C)(C)C(=O)OCOC(=O)Nc1ncnn2c([C@]3(C#N)O[C@H](COC(=O)[C@@H](N)C(C)(C)C)[C@@H](O)[C@H]3O)ccc12 [Compound 395, ((2R,3S,4R,5R)-5-cyano-3,4-dihydroxy-5-(4-((((pivaloyloxy)methoxy)carbonyl)amino)pyrrolo[2,1-f][1,2,4]triazin-7-yl)tetrahydrofuran-2-yl)methyl (S)-2-amino-3,3-dimethylbutanoate] | 0.01 ×10⁻⁶ cm/s | 0.24 ×10⁻⁶ cm/s | 19.2 |  |  |  |
| CC(=O)OC[C@H]1O[C@@](C#N)(c2ccc3c(N)ncnn23)[C@H](O)[C@@H]1OC(=O)CC(C)C [Compound 49, (2R,3S,4R,5R)-2-(acetoxymethyl)-5-(4-aminopyrrolo[2,1-f][1,2,4]triazin-7-yl)-5-cyano-4-hydroxytetrahydrofuran-3-yl 3-methylbutanoate] | 3.9 ×10⁻⁶ cm/s | 2.7 ×10⁻⁶ cm/s | 0.7 |  |  |  |
| CCCCC(=O)Nc1ncnn2c([C@]3(C#N)O[C@H](COC(C)=O)[C@@H](O)[C@H]3O)ccc12 [Compound 288, ((2R,3S,4R,5R)-5-cyano-3,4-dihydroxy-5-(4-pentanamidopyrrolo[2,1-f][1,2,4]triazin-7-yl)tetrahydrofuran-2-yl)methyl acetate] | 0.91 ×10⁻⁶ cm/s | 6.9 ×10⁻⁶ cm/s | 7.7 |  |  |  |
| CC(C)[C@H](N)C(=O)OC[C@H]1O[C@@](C#N)(c2ccc3c(N)ncnn23)[C@H](O)[C@@H]1OC(=O)CC1CCCCC1 [Compound 34, ((2R,3S,4R,5R)-5-(4-aminopyrrolo[2,1-f][1,2,4]triazin-7-yl)-5-cyano-3-(2-cyclohexylacetoxy)-4-hydroxytetrahydrofuran-2-yl)methyl L-valinate] | 1.6 ×10⁻⁶ cm/s | 4.8 ×10⁻⁶ cm/s | 3 |  |  |  |
| CN(C(=O)CC1CCCCC1)c1nc(N)nc2c1ncn2[C@@H]1O[C@H](COC(=O)CC2CCCCC2)[C@@H](O)[C@@]1(C)F [Compound 291, ((2R,3R,4R,5R)-5-(2-amino-6-(2-cyclohexyl-N-methylacetamido)-9H-purin-9-yl)-4-fluoro-3-hydroxy-4-methyltetrahydrofuran-2-yl)methyl 2-cyclohexylacetate] | 11 ×10⁻⁶ cm/s | 17 ×10⁻⁶ cm/s | 1.6 |  |  |  |
| CC(=O)OC[C@H]1O[C@@](C#N)(c2ccc3c(N)ncnn23)[C@H](O)[C@@H]1OCOC(=O)C(C)(C)C [Compound 56, {[(2R,3S,4R,5R)-2-[(acetyloxy)methyl]-5-{4-aminopyrrolo[2,1-f][1,2,4]triazin-7-yl}-5-cyano-4-hydroxyoxolan-3-yl]oxy}methyl 2,2-dimethylpropanoate] | 4.7 ×10⁻⁶ cm/s | 4 ×10⁻⁶ cm/s | 0.84 |  |  |  |
| COC1(CC(=O)OC[C@H]2O[C@@](C#N)(c3ccc4c(N)ncnn34)[C@H](O)[C@@H]2O)CCCCC1 [Compound 287, ((2R,3S,4R,5R)-5-(4-aminopyrrolo[2,1-f][1,2,4]triazin-7-yl)-5-cyano-3,4-dihydroxytetrahydrofuran-2-yl)methyl 2-(1-methoxycyclohexyl)acetate] | 5.2 ×10⁻⁶ cm/s | 13 ×10⁻⁶ cm/s | 2.4 |  |  |  |
